Columns and labels:
[1] = system: HPV 18 positive adenocarcinoma cell (HeLa); details: cited from earlier work
[2] = system: HeLa (HPV 18+) cells; assay: MTT cell viability assay; format: cell-based, human; details: 24 hours' exposure, MTT after 2 days in fresh medium
Source text: (§1) An ideal radiosensitizer means it enhances radiosensitivity at non-toxic dose, but not due to the combined toxicity of drug and radiation. Thus to determine the toxic effect of different oxaliplatin concentrations on human cervical cancer cells by using 3-(4,5-dimethylthiazol-2-yl)-2, S-diphenyl tetrazolium bromide (MTT) assay. This assay is commonly used to determine cell proliferation, percent of viable cells, and cytotoxicity. MTT is a yellow dye, which can be absorbed by the living cells and be reduced to purplish blue formazan crystals by succinate tetrazolium reductase in mitochondria. Formazan formation can therefore be used to assess and determine the survival rate of cells.
(§2) In preliminary work, the human cervical cancer cell lines HeLa (HPV 18+) and SiHa (HPV 16+) were obtained from American Type Culture Collection (Manassas, Va.). […]
(§3) The human cervical cancer cell lines HeLa (HPV 18+) and SiHa (HPV 16+) were separately cultivated in media containing various doses (0˜10 μM) of oxaliplatin for 24 hours. […] For the assay, the cells were incubated with the MTT (tetrazolium compounds) for 4 h, lysed with DMSO, and the color crystals were solubilized with an ELISA reader at a wavelength of 570 nm.

[3] = system: SiHa (HPV 16+) cells; assay: MTT cell viability assay; format: cell-based, human; details: 24 hours' exposure, MTT after 2 days in fresh medium
Source text: as §1, §2, §3

[4] = system: HeLa cells; assay: Colony formation assay after oxaliplatin pretreatment and irradiation (radiation survival); format: cell-based, human
Experimental: (§4) To evaluate whether oxaliplatin treatment influenced the radiosensitivity of cervical cancer cells, this experiment treated HeLa and SiHa cells with oxaliplatin at various concentrations for 2 h prior to radiation survival assays in the invention.
(§5) Based on the above results of cell viability assessment, 0˜10 μM oxaliplatin was used to test for radiation sensitization. HeLa and SiHa were pretreated with various doses (0, 1.25, 5, and 10 μM) of oxaliplatin for 2 h, and the oxaliplatin was washed out before radiation delivery. Irradiation was performed with 6 MeV of electron beam by a linear accelerator (Clinac® 1800, Varian Associates, Inc.) with various doses (0.5, 1, 2 and 3 Gy) at a dose rate of 2.4 Gy/min in a single fraction. Full electron equilibrium was ensured for each fraction by a parallel plate PR-60C ionization chamber (CAPINTEL, Inc., Ramsey, N.J.). Following radiation, a colony formation assay was performed. The ionizing radition of the present invention used include, but not limited to, electron beam radition, photon, electron, gamma, alpha, beta, neutron, and proton radiation. Among them, electron beam radition is preferred.
(§6) Viable tumor cells (10^3) were plated onto culture dishes (35 mm^2) and allowed to grow in McCoy's 5A medium containing 20% heat-inactivated FCS and 0.24% agarose at 37° C. in a humidified 5% CO2 incubator. After 10 to 14 days, the resultant colonies were stained with 0.4% crystal violet and the colonies containing at least 50 cells were determined. The surviving fraction was calculated as the mean colonies/(cells inoculated×plating efficiency). The control plating efficiency for HeLa and SiHa cells was 40-60%. Survival curves were fitted by a linear-quadratic model. The sensitizer enhancement ratio (SER) was calculated as the radiation dose needed for radiation alone divided by the dose needed for oxaliplatin plus radiation to yield a surviving fraction of 37% (Do in radiobiology).
(§7) Statistical analysis was performed by analysis of variance when comparing the colony formation between different treatment conditions. All data were presented as mean ±standard error of the mean (SEM). SPSS 10.0 software (SPSS Inc, Chicago) was used for analysis of all the data. Statistical significance was assumed where the p value was less than 0.05.

[5] = system: SiHa cells; assay: as above; format: cell-based, human
Experimental: as §4, §5, §6, §7

[6] = system: HeLa cells; assay: Cell cycle distribution by propidium iodide staining and flow cytometry; format: cell-based, human
Experimental: To eliminate the potential contribution of cell cycle redistribution to the observed radiosensitization, flow cytometric analysis was performed to determine cell cycle progression after treatment of oxaliplatin. After treating cervical cancer cell line HeLa with 5 μM oxaliplatin for 2 h or 24 h after radiaton, drugs was washed out and cells were cultured for further 24 h. HeLa cells were harvested and fixed with 70% ethanol at 4° C. for 1 h. The cells were stained for 30 min with propidium iodide solution (containing propidium iodide, 0.5 mg/mL; RNAse, 0.1 mg/mL) from a CycleTEST PLUS DNA reagent kit (Becton Dickinson, Lincoln Park, N.J.). Analysis of the DNA content was performed using a FACScaliber flow cytometer (Becton Dickinson). The data from 10^4 cells were collected and analyzed using ModFit software (Becton Dickinson).

[7] = system: HeLa cells; assay: Cell morphology (Wright's staining), mitotic catastrophe; format: cell-based, human
Experimental: After seeding for 24 h, HeLa cells were treated with various conditions including untreated control, oxaliplatin 5 μM for 2 h, radiation 2 Gy, and oxaliplatin 5 μM for 2 h followed by washing out and radiation 2 Gy. After these treatments, cell were cultured for further 24 h and then collected for Wright's staining and observation under a light microscope.

[8] = system: gamma-H2AX in HeLa cells; assay: Immunofluorescent staining of gamma-H2AX; format: cell-based, human; details: oxaliplatin 5 μM 2 h plus 2 Gy, 15 min after radiation
Experimental: Immunofluorescent staining was used to determine radiation-induced expression of gamma-H2AX which is an indicator of DNA double-strand break. For immunofluorescent staining of gamma-H2AX, HeLa cervical cancer cells that were untreated (control), treated with oxaliplatin 5 μM for 2 h, irradiation of 2 Gy, and oxaliplatin plus irradiation, cells were harvested 15 min after radiation, stained with Rhodamine-conjugated gamma-H2AX antibody (red) and counterstained with DAPI (blue), respectively.

[9] = system: pATM, pChk1, pChk2, Rad51 in HeLa cells; assay: Western blot of DNA damage repair molecules; format: cell-based, human; details: oxaliplatin 5 μM 2 h plus radiation 2 Gy
Experimental: For western blot analysis, HeLa cells were cultured with various treatments: untreated (control), oxaliplatin 5 μM for 2 h (oxaliplatin), radiation 2 Gy (RT alone) and oxaliplatin plus radiation (oxaliplatin+RT) for further 1 h and 6 h. Then, the cellular proteins were extracted, quantified and subjected to gel electrophoresis using 10% (wt/vol) SDS-polyacrylamide gels. Protein samples were then blotted onto polyvinylidene difluoride (PVDF) membranes (Bio-Rad, Hercules, Calif.). The membranes were probed with diluted primary antibodies and detected using horseradish peroxidase-conjugated anti-mouse IgG followed by the use of enhanced chemiluminescence kits (Amersham Pharmacia Biotech). Anti-actin antibody was used as an internal control.

[10] = oxaliplatin 5 μM 2 h, versus untreated

SMILES | effect of combination with radiation [1] | highest non-toxic (cell viability>90%) dose [2] [µM] | highest non-toxic (cell viability>90%) dose [3] [µM] | sensitizer enhancement ratio (SER) at 37% survival ([4]; HeLa, oxaliplatin 5 μM for 2 h before radiation) | sensitizer enhancement ratio (SER) at 37% survival ([4]; HeLa, oxaliplatin 10 μM for 2 h before radiation (maximal SER)) | survival of irradiated tumor cells compared to radiation only ([4]; HeLa, pretreatment at 5 and 10 μM, radiation 0.5-3 Gy) | enhancement of radiation efficiency versus radiation alone ([4]; cervical cancer cell lines (HeLa and SiHa)) | maximal sensitizer enhancement ratio (SER) at 37% survival ([5]; oxaliplatin 2 h before radiation) | survival of irradiated tumor cells compared to radiation only ([5]; pretreatment at 5 and 10 μM, radiation 0.5-3 Gy) | proportion in the G0/G1 phase [6, 10] | proportion of cells in the S phase [6, 10] | percentage of cells at G2/M phase ([6]; oxaliplatin 5 μM plus irradiation, irradiation alone 26.2%±3.7) | percentages of apoptosis and necrosis ([7]; between all groups) | percentage cells with mitotic catastrophe ([7]; oxaliplatin 5 μM 2 h alone, untreated control 5.6±1.3%) [%] | percentage cells with mitotic catastrophe ([7]; oxaliplatin 5 μM 2 h followed by radiation 2 Gy, radiation alone 16.7±3.2%) [%] | radiation-induced early expression of gamma-H2AX [8] | Chk1 phosphorylation in irradiated cells [9] | expression of rad51 in irradiated cells [9] | radiation-augmented phosphorylation of Chk2 [9] | radiation-induced expression of phosphorylated ATM [9]
N.N.[Cl][Pt][Cl] [cisplatin] | no effect |  |  |  |  |  |  |  |  |  |  |  |  |  |  |  |  |  |  | 
O=C1[O][Pt]2([NH][C@@H]3CCCC[C@H]3[NH]2)[O]C1=O [oxaliplatin] |  | 5 | 10 | 1.7 | 3.4 | markedly decreased | 3.1-3.9 times | 4.8 | markedly decreased | decreased | remained unchanged | 32.3%±3.5 | no marked changes | 27.3±2.2 | 38.5±3.8 | reduced | no effect | no effect | reduced | markedly reduced

— patent US20090082437A1, “Use of Oxaliplatin for Enhancing Radiosensitivity in Radiotherapy of Cervical Cancer” (MACKAY MEMORIAL HOSPITAL, priority 2007, published 2009)
